Earlier results as cited in paper PMC7114426 (Virus Research, 2012).

Tested on: nsp16

SMILES | inhibition of the MTase activity of nsp16
O=C(O)C1=CC(=C(c2ccc(O)c(C(=O)O)c2)c2ccc(O)c(C(=O)O)c2)C=CC1=O [ATA, aurintricarboxylic acid] | inhibit the MTase activity of nsp16
Nc1ncnc2c1ncn2[C@@H]1O[C@H](CSCC[C@H](N)C(=O)O)[C@@H](O)[C@H]1O [SAH, S-adenosyl-l-homocysteine] | inhibit the MTase activity of nsp16
Nc1ncnc2c1ncn2[C@@H]1O[C@H](C[C@@H](N)CC[C@H](N)C(=O)O)[C@@H](O)[C@H]1O [sinefungin] | inhibit the MTase activity of nsp16
